The text below walks through data of PMC7599001, “The SNAP-tag technology revised: an effective chemo-enzymatic approach by using a universal azide-based substrate” (Journal of Enzyme Inhibition and Medicinal Chemistry, 2020).

Where two headings read alike, the source gives them in different places. A value given as a limit tells only on which side of the number the result lay.

The target in data set [1] is T1, SsOGT-H^5 (Saccharolobus solfataricus, UniProt Q97VW7, G105K/K110E/M106T/R102A/S100A/S132E).
T1 construct: His6-tag; made in house; host or cells: E. coli ABLE C
T1 sequence (Q97VW7 whole entry S100A/R102A/G105K/M106T/K110E/S132E): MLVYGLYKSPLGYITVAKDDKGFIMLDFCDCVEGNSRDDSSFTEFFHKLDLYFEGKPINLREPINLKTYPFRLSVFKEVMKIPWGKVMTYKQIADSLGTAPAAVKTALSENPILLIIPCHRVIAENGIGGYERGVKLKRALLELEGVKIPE
Nature of the data set: AGTs' substrate assay by competitive inhibition method with SVG (gel-imaging). In kind it is biochemical. Here is the method: Competitive inhibition assay was performed as described[23]^,[38]. Briefly, by using a fixed concentration of the fluorescent SVG (5 µM) and enzymes (5 µM), an increasing amount of guanine-derivatives (0–2 mM) was added to the mixtures. […] Subsequently, fluorescent bands were measured by gel-imaging on a VersaDoc 4000™ system (Bio-Rad), by applying a blue LED/530 bandpass filter. Obtained data were finally plotted by Equation (1), (1) RF=100%/1+([I]/IC50)^[S] where RF is the obtained Relative Fluorescence, [I] and [S] are the concentration of the inhibitor and the substrate, respectively, and finally the IC50 is the concentration needed to reduce by 50% the fluorescence intensity of the protein band.
(§1) We evaluated the activity of SNAP-tag® and H^5 enzymes on BGN3 and BGSN3 by the afore-mentioned IC50 method (Figure S5(A,B)) and other O^6-guanine-derivatives (Table 1).
(§2) Because most of them are non-fluorescent compounds, we performed an AGTs’ competitive inhibition assay by using the fluorescein-derivative SNAP-Vista® Green as substrate (SVG), as previously described[22–24]^,[45]. Briefly, the reaction of an AGT with SVG led to a fluoresceinated protein, which can be visualised as a fluorescent band in gel-imaging analysis after SDS-PAGE. The presence of increasing amounts of a non-fluorescent competitor in the reaction causes a decrease of the fluorescent signals, which can be measured and plotted for the IC50 values determination[23]^,[46].

Data set [2] addresses T2, SNAP-tag® (Homo sapiens, UniProt P16455, A127T/C150S/C62A/G131K/G132T/K125A/M134L/N157G/R128A/R135S/S159E).
T2 sequence (P16455 1-182 C62A/K125A/A127T/R128A/G131K/G132T/M134L/R135S/C150S/N157G/S159E): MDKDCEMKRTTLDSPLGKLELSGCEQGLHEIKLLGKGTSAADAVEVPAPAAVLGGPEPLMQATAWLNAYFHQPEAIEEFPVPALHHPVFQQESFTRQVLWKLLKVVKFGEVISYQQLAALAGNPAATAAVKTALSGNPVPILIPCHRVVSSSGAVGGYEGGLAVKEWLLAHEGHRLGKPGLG
Described as above. In kind it is biochemical. The following applies: for IC50: SVG 5 µM, enzyme 5 µM, 30 min at 25 °C. As to the method: Competitive inhibition assay was performed as described[23]^,[38]. Briefly, by using a fixed concentration of the fluorescent SVG (5 µM) and enzymes (5 µM), an increasing amount of guanine-derivatives (0–2 mM) was added to the mixtures. The reactions were incubated for 30 min at 25 °C and 50 °C for SNAP-tag® and H^5 respectively, and loaded on SDS-PAGE. Subsequently, fluorescent bands were measured by gel-imaging on a VersaDoc 4000™ system (Bio-Rad), by applying a blue LED/530 bandpass filter. Obtained data were finally plotted by Equation (1), (1) RF=100%/1+([I]/IC50)^[S] where RF is the obtained Relative Fluorescence, [I] and [S] are the concentration of the inhibitor and the substrate, respectively, and finally the IC50 is the concentration needed to reduce by 50% the fluorescence intensity of the protein band.
as §1, §2

In data set [3] the test system is HEK293T cells transfected with SNAP-tag® plasmid. Nature of the data set: Permeability of eukaryotic cells to BGSN3 (lysates then incubated with SVG, gel-imaging). In kind it is cell-based. Here is the method:
HEK293T cells were maintained at 37 °C with 5% CO2 in Dulbecco’s Modified Essential Medium (Invitrogen, Carlsbad, CA) supplemented with 10% Foetal Bovine Serum (FBS) (Invitrogen) and 100 U/ml Penicillin/Streptomycin (Roche, Switzerland). HEK293T cells were transfected with SNAP-tag® plasmid by using Lipofectamine 2000 (Invitrogen) following manufacturer’s protocol. The treatment with BGSN3 were performed, at the concentration and time indicated for each experiment. Twenty-four hours after transfection, we treated cells with BGSN3 for 2 h at different concentrations ranging (from 1 to 25 µM), directly dissolving the compound in complete culture medium. Then cells were harvested, washed with PBS 1× buffer and lysed with 50 mM Tris-HCl pH 7.4, 150 mM NaCl, 0.5 mM EDTA, 0.1% Triton X-100 supplemented with complete protease (Roche, Switzerland) and phosphatase (SERVA Electrophoresis, Germany) inhibitors. Afterwards, transfected cells were treated with a fixed concentration of BGSN3 (10 µM) at different time points (from 30 to 120 min). Again, HEK293T cells were washed and lysed as described before. […] Subsequently, proteins were loaded on SDS-PAGE and analysed by gel-imaging on a VersaDoc 4000™ system (Bio-Rad), by applying a blue LED/530 bandpass filter (Figure 6).

For data set [4], the target named is T1, SsOGT-H^5. The following applies: cited from earlier work.
Data set [5] deals with T2, SNAP-tag®. More on the design: method as in PMID 18291317, PMID 26499124. As to conditions: 25 °C; obtained by using a BG-fluorescein substrate (BG-FL) very similar to SVG; cited from earlier work.
The mark [6] stands for this setting: SVG 5 µM, enzyme 5 µM, 30 min at 50 °C, read-out: IC50.

Regarding `Nc1nc(OCc2ccccc2)c2nc[nH]c2n1` [BG, O^6-benzyl-guanine], the IC50 (commonly the midpoint of a concentration-inhibition curve) at SsOGT-H^5 [1] (setting [6]) came to 10.1 ± 1 µM.

With `[N-]=[N+]=NCc1ccc(COc2nc(N)nc3nc[nH]c23)cc1` [BGN3, O^6-BG-N3], the results for the IC50 at SNAP-tag® [2] and at SsOGT-H^5 [1] (setting [6]) were 15.6 ± 0.3 µM and 23.5 ± 1 µM, respectively.

Consider `[N-]=[N+]=NCCCC(=O)NCc1ccc(COc2nc(N)nc3[nH]cnc23)cc1` [BGSN3, N-(4-(((2-amino-9H-purin-6-yl)oxy)methyl)benzyl)-4-azidobutanamide], for which the IC50 at SNAP-tag® [2] amounted to 17.8 ± 1.1 µM; on SsOGT-H^5 [1], 10 ± 0.7 µM. In addition, in data set [3] (2 h treatment in culture medium), the “concentration for internalisation (absence of SVG signal)” value was under 5 µM. Besides, the time of internalisation entry in data set [3] (BGSN3 10 µM in culture medium) is listed as “ca. 30 min”.

On to BG-PEG-NH2 [BGPA], for which the IC50 on SNAP-tag® [2] was 86 ± 6.7 µM; at SsOGT-H^5 [1] (setting [6]), 14.3 ± 1.9 µM.

For the molecule SNAP Cell^® 430 [SC430], the “competition with SVG” value on SNAP-tag® [2] (competitive inhibition assay) and on SsOGT-H^5 [1] (competitive inhibition assay) was “completely lost the competition with SVG” throughout.

As for SNAP Cell^® Block [SCB], the figures for the IC50 at SNAP-tag® [2] and on SsOGT-H^5 [1] (setting [6]) were 2.1 ± 0.5 µM and 4.4 ± 0.8 µM, respectively.

For the molecule SNAP-Vista^® Green [SVG], the “k (second order rate constant of the enzymatic reaction)” value on SsOGT-H^5 [4] was 16000 M⁻¹ s⁻¹; on SNAP-tag® [5], 2.8 × 10^4 b s^−1 M^−1.

For methyl-guanine-PEG-NH2 [MGPA], at SsOGT-H^5 [1] (competitive assay for H^5 performed at 65 °C, read-out: IC50), the IC50 was 269 ± 19.1 µM.
